Experimental data published in publication PMC9537177, “A VEGFR targeting peptide-drug conjugate (PDC) suppresses tumor angiogenesis in a TACE model for hepatocellular carcinoma therapy” (Cell Death Discovery, 2022).
Entries after “also recorded” stand apart in the source; their conditions may differ. Square brackets hold non-standard residues; d marks the D form. Peptide text beside a SMILES is read from it. Aib = CC(C)(N)C(=O)O; Ahx = NCCCCCC(=O)O

Key:
[1] = Therapeutic safety in VX2 tumor-bearing rabbits (organ H&E, serum biochemistry)
Protocol: Twenty-four VX2 tumor-burdened rabbits were evenly divided into four groups. After fasting for 12 h, the rabbits were anesthetized by intravenous injection of pentobarbital sodium solution (2 wt.%, 30 mg/kg). The rabbit’s right femoral artery was dissected and a 4-F Cobra catheter (Cook, Inc., Bloomington, Indiana) was inserted into the celiac artery, hepatic arteriography was then performed under the guidance of digital subtraction angiography (DSA), and a 2.7-F coaxial microcatheter (Terumo, Tokyo, Japan) was super-selectively inserted into the tumor donor branch subsequently. The emulsion of drugs and lipiodol were slowly injected into the tumor-feeding artery through the above microcatheter at a speed of 0.5 mL/min. […] After obtaining all DSA images, the sheaths and catheters were removed.
Seven days after treatment, the liver tumors, hearts, lungs, kidneys and spleens were harvested and fixed in 4% phosphate-buffered paraformaldehyde, the specimens were embedded in paraffin blocks and cut into 5‐μm‐thick sections. Following the manufacturer’s guidelines, the sections were stained with haematoxylin and eosin (H&E) for the evaluation of organ toxicity and tumor necrosis, Ki-67 staining and transfer-mediated dUTP nick end labeling (TUNEL) technique were used to detect tumor proliferation and apoptosis, respectively.
Blood samples were collected before treatment and at 1, 3, 7 days after treatment. The blood samples were stood at room temperature for 30 min, and the serum was obtained by centrifugation (room temperature, 8000 rpm, 10 min) for assessment of alanine aminotransferase (ALT), aspartate aminotransferase (AST), total bilirubin (TBIL) and creatinine (CREA). The assays were performed using the commercially ready-made kits following the manufacturers’ instructions.

HUVEC cells [2] = assay: Annexin V-FITC/PI cell apoptosis assay, HUVEC; format: cell-based, human; settings: 10 μM, 24 h, Annexin V-PI FACS
Protocol: The improved proapoptotic activity of QR-KLU was further confirmed by Annexin V-PI staining through FACS. Viable cells, early apoptotic cells, necrotic cells, late apoptotic cells were represented by Q4, Q3, Q2 and Q1 respectively. […] Besides, QR-KLU induced cell apoptosis in a dose-dependent manner. […] The percentage of apoptotic cells in KLU peptide at 20 μM were about 25% in both Huh7 cells and HUVEC cells.
(§1) The apoptosis assay was performed according to the manufacturer’s instructions using an Annexin V: Fluorescein Isothiocyanate (FITC) Apoptosis Detection Kit I (BD Pharmingen™). Briefly, Huh 7 or HUVEC cells were seeded in a 12-well plate and allowed to grow for 24 h in medium with 10% FBS. Then, the cells were treated with the different peptides in medium with 5% FBS for 24 h’ incubation. The cells were harvested with 0.25% trypsin/EDTA, washed twice with PBS and suspended in 1 × binding buffer. The suspended cells were treated with FITC-labeled Annexin V and propidium iodide (PI) as the protocol indicated and then analyzed by flow cytometry to determine the apoptotic cells. The cells with positive fluorescence intensity signals for both FITC and PI were used for the apoptotic cell count.
Supplementary Figure S2. Cell apoptosis of HUVEC induced by different peptides. HUVEC cells were treated with PBS, 80μM QR, 20μM KLU, 5μM QR-KLU, 10μM QR-KLU for 24 hours before detection by FACS.

Huh 7 cells = settings: 10 μM, 24 h, Annexin V-PI FACS
Protocol: Viable cells, early apoptotic cells, necrotic cells, late apoptotic cells were represented by Q4, Q3, Q2 and Q1 respectively.
as §1

[3] = system: HUVEC cells with high expression of VEGFR; assay: Cell competitive binding (cell affinity) assay by FACS, HUVEC; format: cell-based, human; settings: QR-KLU 0, 2.5, 5, 10, 20 μM pre-incubated 30 min at 37 °C, then 10 μM FAM-QR for 4 h
Protocol: (§2) We then performed cell competitive binding assay to evaluate the affinity of the peptide conjugate to endothelial cell HUVEC with high expression of VEGFR [29]. FAM-labeled VEGF125−136 peptide QR was cultured with HUVEC cells for 4 h and then cellular penetration ability was tested by FACS. […] To further confirm our result, we then used HT29 cells to repeat this assay as HT29 cells are reported with low expression of VEGFR [29].
(§3) Fig. 2 The cell affinity of QR-KLU with different cell lines. Cell penetration of peptide QR-KLU with HUVEC cells (A) and HT29 cells (B). The cells were respectively treated with PBS, 10 μM FAM-QR + 0 μM QR-KLU, 10 μM FAM-QR + 2.5 μM QR-KLU, 10 μM FAM-QR + 5 μM QR-KLU, 10 μM FAM-QR + 10 μM QR-KLU, 10 μM FAM-QR + 20 μM QR-KLU. C The median fluorescence of HUVEC and HT29 cells treated with different peptides as mention in Fig. 2A, B.
(§4) The affinity ability of peptide QR-KLU to endothelial cells was determined by fluorescence-activated cell sorting (FACS) analysis. Briefly, the HUVEC cells were incubated on a 24-well plate for 24 h in growth medium. Then peptide QR-KLU in medium with different concentrations (0 μM, 2.5 μM, 5 μM, 10 μM, 20 μM) were respectively incubated with HUVEC cells for 30 min at 37 °C. Next, carboxy-fluorescein (FAM)-labelled-QR peptide (10 μM) were added to each well for 4 h at 37 °C. […] FACS was performed and the results were analyzed using FlowJo.

HUVEC cells [4] = assay: Wound-healing assay of HUVEC cells; format: cell-based, human; settings: 10 μM, 24 h
Protocol: Wound-healing assay was performed according to the protocols reported by Liang et al.. Briefly, HUVEC cells were plated into 12-well plate and grown to create a confluent monolayer. The monolayer was grazed in a straight line to create a “scratch” with a pipette tip. Markings were created close to the scratch to be used as reference points. Then cells were treated with different peptides for 24 h at 37 °C. Images were collected with a Leica DFC480 camera on a phase-contrast microscope equipped with a 10 × objective at room temperature. The free area of the wound was measured by image software. Supplementary Figure S1. Wound healing assay to detect the cell migration influenced by different peptides.

[5] = system: HT29 cells with low expression of VEGFR; assay: Cell competitive binding (cell affinity) assay by FACS, HT29; format: cell-based, human; settings: QR-KLU 0-20 μM with 10 μM FAM-QR
Protocol: as §2, §3, §4

VX2 liver tumor = assay: VX2 rabbit liver tumor model with TAE/TACE: tumor growth, necrosis, apoptosis, proliferation, angiogenesis; format: in vivo, New Zealand white rabbits
Protocol: New Zealand white rabbits (2.5-3 kg) were purchased from the Laboratory Animal Center of Tongji Medical College of Huazhong University of Science and Technology (Wuhan, China). All the animal experimental procedures were performed in accordance with the National Institutes of Health Guidelines for the Care and Use of Laboratory Animals and the protocol was approved by the Ethics Committee of Tongji Medical College, Huazhong University of Science and Technology. Blinding was not possible in most animal experiments. The rabbit VX2 liver tumor model was established according to the method reported by Qian K et al.. […] The acquisition parameters of the sequence are as follows: […], TR 2750 ms, TE 65 ms, the field of view 120 mm × 120 mm, Slice thickness 3 mm in the transverse plane, matrix 152 × 152. The multi-vane technique was used to reduce artifacts and improve image quality, acquisition time 3 min […]; […] Seven days after TACE procedure, tumor size was evaluated again by MR scan and the tumor volume was calculated by formula: V = a * b^2/2 (a, long diameter; b, short diameter). And tumor growth rate was calculated by formula: […] Finally, the VX2 rabbits were sacrificed and the tumor tissues were harvested for biochemical analysis and histopathological examination. […] The IHC staining procedures were performed as previously described. Briefly, the sections were blocked in 3% H2O2 for 25 min and then incubated with goat serum for 15 min. Subsequently, the sections were first washed and incubated with anti-VEGF (1:200, Abcam, USA), and anti-CD31 (1:20; Abcam, USA) overnight at 4 °C, and then incubated with second antibody (Abcam, USA) at 37 °C for 50 min. Next, the sections were stained with 3, 3'-diaminobenzidine (DAB, Service bio, Wuhan […] Biotechnology Co., Ltd., China) for 6 min and rinsed and stained in hematoxylin for 30 s. The sections were then dehydrated in gradient alcohol and sealed in neutral resins. VEGF expression was assessed by semiquantitative IHC based on staining intensity and density, the staining intensity was scored as 0 (negative), 1 (weak), 2 (moderate), and 3 (strong), while the staining density was scored on the basis of the percentage of positively stained cells: 0 (0%), 1 (1-25%), 2 (26-50%), 3 (51-75%), and 4 (76-100%). The total VEGF IHC score was calculated by multiplying the intensity score by the density score. Microvessel density (MVD) was calculated according to the method developed by Weidner et al.

[6] = 7 days after treatment, versus NS group

CC(=O)N[C@@H](CCC(N)=O)C(=O)N[C@@H](CCCCN)C(=O)N[C@@H](CCCNC(=N)N)C(=O)N[C@@H](CCCCN)C(=O)N[C@@H](CCCNC(=N)N)C(=O)N[C@@H](CCCCN)C(=O)N[C@@H](CCCCN)C(=O)N[C@@H](CO)C(=O)N[C@@H](CCCNC(=N)N)C(=O)N[C@@H](Cc1ccc(O)cc1)C(=O)N[C@@H](CCCCN)C(=O)N[C@@H](CO)C(=O)NCCCCCC(=O)N[C@@H](CCCCN)C(=O)N[C@@H](CC(C)C)C(=O)NC(C)(C)C(=O)N[C@@H](CCCCN)C(=O)N[C@@H](CC(C)C)C(=O)NC(C)(C)C(=O)N[C@@H](CCCCN)C(=O)N[C@@H](CCCCN)C(=O)N[C@@H](CC(C)C)C(=O)NC(C)(C)C(=O)N[C@@H](CCCCN)C(=O)N[C@@H](CC(C)C)C(=O)NC(C)(C)C(=O)N[C@@H](CCCCN)C(N)=O [QR-KLU] (Ac-QKRKRKKSRYKS[Ahx]KL[Aib]KL[Aib]KKL[Aib]KL[Aib]K-NH2; N-terminus and C-terminus assumed)
H&E staining of hearts, lungs, kidneys and spleens ([1]; 7 days after TACE, 4 mg/kg in lipiodol): no apparent tissue injury
liver and renal toxicity (ALT, AST, TBIL, CREA in serum) ([1]; before and 1, 3, 7 days after treatment, 4 mg/kg in lipiodol via TAE): no significant liver or renal toxicity
apoptosis rate in HUVEC cells (HUVEC cells [2]): over 40%
apoptosis rate in Huh 7 cells (Huh 7 cells): over 60%
effect of QR-KLU on cell penetration of FAM-labeled peptide QR in HUVEC [3]: decreased cell penetration ability
cell migration of HUVEC (wound epithelial gap) (HUVEC cells [4]): the wound epithelial gap was unchanged or even bigger
effect of QR-KLU on cell penetration of FAM-labeled peptide QR in HT29 [5]: could not obviously affect cell penetration ability
mean tumor volume at 7 days after TAE procedure (VX2 liver tumor; 0.5 mL lipiodol emulsion into tumor-feeding artery, DOX 2 mg/kg, KLU 4 mg/kg, QR-KLU 4 mg/kg, MR images, 24 rabbits evenly in four groups, mean ± SD): 1008.5 ± 370.7 mm^3
tumor growth rate (V7/V0 × 100%) (VX2 liver tumor; 7 days after TAE, DOX 2 mg/kg, KLU 4 mg/kg, QR-KLU 4 mg/kg in lipiodol, NS group 276.4%): significantly lower than that of the NS group; also recorded: significantly lower than the other three groups
VEGF IHC score in tumor (VX2 liver tumor; 7 days after embolization, IHC intensity × density score, compared with NS group): significantly reduced the expression of CD31 and VEGF
microvessel density (MVD), CD31 IHC (VX2 liver tumor; 7 days after embolization, mean of three ×200 fields, compared with NS group): reduce the MVD in the tumor
mean proportion of apoptotic cells in tumor (TUNEL) (VX2 liver tumor; [6]): significantly higher than that in NS group; also recorded: highest
mean proportion of proliferating cells in tumor (Ki67) (VX2 liver tumor; [6]): significantly lower than that in NS group; also recorded: lowest
mean tumor volume one day before TAE procedure (VX2 liver tumor; baseline, MR images, V = a*b^2/2, VX2 rabbits, 24 rabbits evenly in four groups, mean ± SD): 899.7 ± 394.0 mm^3
